Results: ChEMBL document CHEMBL1201862, “PubChem BioAssay data set” (2004)
Activity calls are given as the source filed them.

Assays:
Cytochrome P450 1A2 = molecular target: T1, Cytochrome P450 1A2 (Homo sapiens, UniProt P05177);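 further: PubChem cytochrome P450 panel assay, CYP1A2 panel member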
T1 sequence (P05177 whole entry): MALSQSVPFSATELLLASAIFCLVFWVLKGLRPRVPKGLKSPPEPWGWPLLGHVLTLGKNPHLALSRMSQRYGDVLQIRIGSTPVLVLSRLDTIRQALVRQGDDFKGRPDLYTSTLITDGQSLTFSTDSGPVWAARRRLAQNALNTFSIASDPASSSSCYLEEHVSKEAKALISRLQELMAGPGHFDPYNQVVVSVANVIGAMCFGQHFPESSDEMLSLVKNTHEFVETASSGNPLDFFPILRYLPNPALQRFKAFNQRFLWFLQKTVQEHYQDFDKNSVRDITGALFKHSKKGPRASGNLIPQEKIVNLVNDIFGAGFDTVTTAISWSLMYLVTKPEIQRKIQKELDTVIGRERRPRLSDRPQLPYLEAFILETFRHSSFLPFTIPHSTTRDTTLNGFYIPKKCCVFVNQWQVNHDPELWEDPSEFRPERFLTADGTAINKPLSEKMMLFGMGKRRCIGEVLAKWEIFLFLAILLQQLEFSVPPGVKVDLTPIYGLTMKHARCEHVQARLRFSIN

Cytochrome P450 2C9 = Cytochrome P450 2C9 (Homo sapiens, UniProt P11712)
Cytochrome P450 2C9, sequence (P11712 whole entry): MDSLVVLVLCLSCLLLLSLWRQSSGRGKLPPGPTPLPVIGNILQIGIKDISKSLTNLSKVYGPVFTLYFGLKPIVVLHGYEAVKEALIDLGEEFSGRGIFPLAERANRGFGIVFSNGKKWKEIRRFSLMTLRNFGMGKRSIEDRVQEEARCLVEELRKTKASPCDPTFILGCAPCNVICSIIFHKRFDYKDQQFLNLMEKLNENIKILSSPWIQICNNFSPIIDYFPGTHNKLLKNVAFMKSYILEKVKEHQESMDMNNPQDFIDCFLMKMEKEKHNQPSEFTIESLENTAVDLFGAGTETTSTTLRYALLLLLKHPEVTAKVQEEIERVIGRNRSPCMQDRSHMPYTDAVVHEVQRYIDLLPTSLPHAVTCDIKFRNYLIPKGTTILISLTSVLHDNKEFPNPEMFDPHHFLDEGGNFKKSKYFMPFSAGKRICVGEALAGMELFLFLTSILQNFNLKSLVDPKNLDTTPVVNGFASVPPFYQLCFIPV

[1] = NIH-3T3 fibroblast cytotoxicity, dose response, cytotoxicity control, cell-based, fluorescence, Alamar Blue, secondary assay (AID 2327); assay type: functional;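 further: NIH-3T3 mouse fibroblasts cultured with fluconazole at 8 µg/mL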
[2] = fluconazole-exposed Candida albicans growth modulators – fluorescence, retest, confirmation (AID 2467); assay type: functional, cell-based
[3] = viability of uninfected HEp-2 cells – cell-based, HTS, cytotoxicity control for RSV inhibitor project, dose response (AID 2410); assay type: functional; conditions: human respiratory syncytial virus
Cytochrome P450 3A4 = Cytochrome P450 3A4 (Homo sapiens, UniProt P08684);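 further: CYP3A4 tested as one member of a cytochrome P450 panel screen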
Cytochrome P450 3A4, sequence (P08684 whole entry): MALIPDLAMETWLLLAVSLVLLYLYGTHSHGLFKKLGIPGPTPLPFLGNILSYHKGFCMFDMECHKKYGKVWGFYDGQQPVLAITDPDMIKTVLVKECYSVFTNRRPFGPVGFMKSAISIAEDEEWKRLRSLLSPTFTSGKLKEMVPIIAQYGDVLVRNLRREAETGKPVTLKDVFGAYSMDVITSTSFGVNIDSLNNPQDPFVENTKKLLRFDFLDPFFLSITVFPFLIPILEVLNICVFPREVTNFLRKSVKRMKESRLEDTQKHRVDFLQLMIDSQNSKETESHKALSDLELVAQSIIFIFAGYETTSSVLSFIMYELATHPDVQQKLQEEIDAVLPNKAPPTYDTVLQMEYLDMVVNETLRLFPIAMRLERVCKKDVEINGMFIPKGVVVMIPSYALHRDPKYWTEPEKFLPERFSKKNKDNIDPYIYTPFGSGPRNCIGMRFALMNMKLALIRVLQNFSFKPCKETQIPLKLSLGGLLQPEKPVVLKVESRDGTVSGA

Cytochrome P450 2C19 = Cytochrome P450 2C19 (Homo sapiens, UniProt P33261); assay: Cytochrome panel assay with activity outcomes. Panel member name: p450-cyp2c19 Compounds with AC50 equal or less than 10 uM are considered active; assay type: functional; conditions: read-out: AC50
Cytochrome P450 2C19, sequence (P33261 whole entry): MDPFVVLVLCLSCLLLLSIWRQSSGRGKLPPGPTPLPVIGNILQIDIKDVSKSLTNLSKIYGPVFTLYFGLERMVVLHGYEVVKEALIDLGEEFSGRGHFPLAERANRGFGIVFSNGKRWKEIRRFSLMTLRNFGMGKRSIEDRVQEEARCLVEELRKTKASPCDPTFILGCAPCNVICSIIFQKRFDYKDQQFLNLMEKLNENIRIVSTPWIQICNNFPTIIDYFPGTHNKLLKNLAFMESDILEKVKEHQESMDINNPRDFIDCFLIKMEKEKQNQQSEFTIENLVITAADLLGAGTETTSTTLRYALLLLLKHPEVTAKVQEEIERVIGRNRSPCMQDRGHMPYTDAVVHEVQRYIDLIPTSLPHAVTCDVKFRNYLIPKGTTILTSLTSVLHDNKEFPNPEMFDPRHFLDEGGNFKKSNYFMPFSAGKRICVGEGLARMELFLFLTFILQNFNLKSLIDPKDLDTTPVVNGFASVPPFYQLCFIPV

INS1 = assay: INS-1E survival protection against cytokine death – cell-based, luminescence, retest, dose response (AID 449756); assay type: functional; conditions: Rattus norvegicus;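 further: cell death triggered by IL-1 beta plus TNF-alpha plus IFN-gamma mixture; protective hits raise ATP signal compared with cytokine alone wells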
[4] = molecular target: T2, Heat shock factor protein 1 (Mus musculus, UniProt P38532); assay: decrease of HSF1-responsive luciferase luminescence – cell-based, NIH3T3, dose retest, confirmation (AID 2382); assay type: functional;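 further: NIH3T3 fibroblasts with HSF1-driven luciferase reporter stressed by proteasome inhibitor MG132; luminescence from HSF1-driven luciferase expression after 8 hours of MG132 stress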
T2 sequence (P38532 whole entry): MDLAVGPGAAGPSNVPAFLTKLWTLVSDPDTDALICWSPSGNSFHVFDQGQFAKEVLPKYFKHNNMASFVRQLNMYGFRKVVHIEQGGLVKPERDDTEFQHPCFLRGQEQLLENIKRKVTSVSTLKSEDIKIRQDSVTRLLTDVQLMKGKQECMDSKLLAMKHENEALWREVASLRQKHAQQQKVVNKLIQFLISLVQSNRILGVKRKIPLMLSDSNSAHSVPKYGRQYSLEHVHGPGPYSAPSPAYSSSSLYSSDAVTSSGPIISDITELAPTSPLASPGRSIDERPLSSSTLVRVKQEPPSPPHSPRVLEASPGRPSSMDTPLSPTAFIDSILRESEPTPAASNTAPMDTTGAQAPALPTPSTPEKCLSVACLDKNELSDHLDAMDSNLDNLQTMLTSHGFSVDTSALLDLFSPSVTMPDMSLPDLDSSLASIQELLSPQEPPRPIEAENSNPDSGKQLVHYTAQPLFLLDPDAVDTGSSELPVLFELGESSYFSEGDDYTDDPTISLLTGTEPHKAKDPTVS

H4 = assay: Luminescence Cell-Based Dose Response HTS to Identify Activators of 5'UTR Stem-Loop Driven Prion Protein mRNA Translation in H4 Neuroglioblastoma Cells. [Related pubchem assays: 1829 (Project Summary), 1814 (Primary HTS)]; assay type: functional; conditions: Homo sapiens
[5] = Luminescence Cell-Based Dose Confirmation HTS to Identify Activators of 5'UTR Stem-Loop Driven Alpha-Synuclein mRNA Translation in H4 Neuroglioblastoma Cells. [Related pubchem assays: 1829 (Project Summary), 1814 (Primary HTS)]; assay type: functional
[6] = Luminescence Cell-Based Dose Response HTS to Identify Activators of Luciferase Translation or Activity in H4 […] Cells. [Related pubchem assays: 1829 (Project Summary), 1814 (Primary HTS)]; assay type: functional
[7] = Trypanosoma cruzi growth suppression in host cells – NIH3T3 host cells, beta-gal luminescence, confirmation (AID 2044); assay type: functional, cell-based;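 further: intracellular parasites grown in NIH/3T3 mouse fibroblasts as host cells; luminescent beta-galactosidase reporter signal from transgenic T. cruzi replicating inside host cells; inhibitors lower the luminescence signal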
[8] = NIH3T3 cell viability loss – ATP luminescence, mouse fibroblasts, counter-screen, dose response (AID 2010); assay type: functional, cell-based;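 further: cells exposed to compound for about 90 hours before reading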

Cn1c(=O)cc(OCC(=O)NCc2cccnc2)c2ccccc21
AC50 (Cytochrome P450 1A2): 1.58 µM (inconclusive)
AC50 (Cytochrome P450 2C9): 14.1 µM (inconclusive)

Oc1ccc(N2CCN(C(S)=NCCc3ccccc3)CC2)cc1
EC50 [1]: > 150 µM (inactive)
EC50 [2]: 0.177 µM (active)

CCOc1ccccc1NC(=O)c1cc(S(=O)(=O)N2CCC3(CC2)OCCO3)ccc1F
EC50 [1]: > 160 µM (inactive)
EC50 [2]: > 38 µM (not active)

CC(O)(CS(=O)(=O)Cc1ccccc1Cl)C(=O)Nc1cccc(C(F)(F)F)c1 (stereo not drawn)
AC50 (Cytochrome P450 2C9): 11.2 µM (inconclusive)

COc1ccc(CCNC(=O)c2ccc3c(c2)N(Cc2ccc(C)cc2)CCS3)cc1OC
CC50 [3]: 35.9 µM (active)

Cn1c(=O)cnc2cnc(Nc3ccccc3)nc21
AC50 (Cytochrome P450 3A4): 25.1 µM (inconclusive)
AC50 (Cytochrome P450 2C19): 7.94 µM (inconclusive)
AC50 (Cytochrome P450 2C9): 25.1 µM (inconclusive)

N#CCCn1c(=O)c(-c2cccc(C#N)c2)nc2cnc(Oc3cccc(Cl)c3)nc21
AC50 (Cytochrome P450 2C9): 12.6 µM (inconclusive)

Brc1ccc(-c2ncc3ccccn23)cc1
CC50 [3]: 29.9 µM (active)

Cc1cccc(-c2nc(C#N)c(NCc3ccco3)o2)c1
CC50 [3]: 42.9 µM (active)

O=C(Nc1ccc(C(=O)Nc2ccccc2Cl)cc1)c1cccnc1
AC50 (INS1): 1.06 µM (active)

COc1cc2c(cc1OC)C(NC(=O)C(F)(F)F)CNC2=O (stereo not drawn)
AC50 (INS1): > 260 µM (inconclusive)

FC(F)(F)c1cnc(NN=C(S)Nc2ccc(Cl)cc2)c(Cl)c1
AC50 (INS1): 3.44 µM (active)

CCOC(=O)CSc1ccc(C(=O)N2CCN(C)CC2)cc1[N+](=O)[O-]
EC50 [1]: > 160 µM (inactive)
EC50 [2]: > 38 µM (not active)

C[C@]12CC[C@@H]3c4ccc(O)cc4CC[C@H]3[C@@H]1CCC2=O [ESTRONE]
CC50 [3]: 33 µM (active)

Cc1ccc(-c2c[n+](CC(=O)N3c4ccccc4Sc4ccccc43)c3n2CCC3)cc1
EC50 [1]: > 150 µM (inactive)
EC50 [2]: 2.77 µM (active)

O=C(c1cc2c(s1)-c1ccccc1OC2)N1CCC2(CC1)OCCO2
EC50 [1]: 43.1 µM (active)
EC50 [2]: 2.9 µM (active)

O=c1cc(-c2ccccc2)c2ccc(O)cc2o1
EC50 [1]: > 160 µM (inconclusive)
EC50 [4]: 117 µM (active)
EC50 [2]: 2.12 µM (active)

CC(O)(CS(=O)(=O)c1ccccc1)C(=O)Nc1cccc(C(F)(F)F)c1 (stereo not drawn)
AC50 (Cytochrome P450 2C9): 35.5 µM (inconclusive)

O=C(COC(=O)c1cn(-c2ccccc2)nc1-c1ccccc1)c1cccc([N+](=O)[O-])c1
AC50 (INS1): 4.4 µM (active)

COc1ccc(N2CCN(Cc3nc4c(c(=O)[nH]c(=O)n4C)n3CCCc3ccccc3)CC2)cc1
AC50 (Cytochrome P450 2C19): 28.2 µM (inconclusive)
AC50 (Cytochrome P450 2C9): 39.8 µM (inconclusive)

N#CCCn1c(=O)c(-c2cc(F)cc(F)c2)nc2cnc(OCc3ccccc3)nc21
AC50 (Cytochrome P450 3A4): 15.8 µM (inconclusive)
AC50 (Cytochrome P450 2C9): 3.16 µM (inconclusive)

Cc1oc2c(cc(NS(=O)(=O)c3cccs3)c3ccccc32)c1C(=O)OC(C)C
CC50 [3]: 20.3 µM (active)

COc1ccc(-c2cc(C(F)(F)F)n3ncc(C(=O)NCC4CCCO4)c3n2)cc1OC (stereo not drawn)
AC50 (Cytochrome P450 1A2): 5.01 µM (inconclusive)
AC50 (Cytochrome P450 3A4): 3.55 µM (inconclusive)
AC50 (Cytochrome P450 2C19): 14.1 µM (inconclusive)
AC50 (Cytochrome P450 2C9): 7.94 µM (inconclusive)

COc1ccc(Oc2ncc3nc(C)c(=O)n(-c4ccc(OC)cc4)c3n2)cc1
AC50 (Cytochrome P450 2C9): 39.8 µM (inconclusive)

CC(=O)c1cccc(Nc2nc(-c3sc(C)nc3C)cs2)c1
CC50 [3]: > 50 µM (active)

CSc1nnc(C)c(/C=C/Nc2ccc(Cl)cc2)n1
CC50 [3]: > 50 µM (active)

CCCCSc1ccc(NC(=O)c2cccnc2)cc1
AC50 (INS1): 8.46 µM (active)

COCCN=C(S)N1C2CCC1CC(NC(=O)NC13CC4CC(CC(C4)C1)C3)C2 (stereo not drawn)
AC50 (Cytochrome P450 2C19): 20 µM (inconclusive)
AC50 (Cytochrome P450 2C9): 14.1 µM (inconclusive)

CCCn1c(CC)nc([N+](=O)[O-])c1Sc1ccc(F)cc1
EC50 [1]: 16.3 µM (active)
EC50 [2]: > 38 µM (not active)

CN(C)c1ncc2nc(-c3ccccc3)c(=O)n(Cc3cccs3)c2n1
AC50 (Cytochrome P450 3A4): 15.8 µM (inconclusive)
AC50 (Cytochrome P450 2C9): 10 µM (inconclusive)

COc1cccc(-c2csc(NC(=O)Nc3ccccc3)n2)c1
EC50 [4]: > 195 µM (not active)
EC50 (H4): 18.9 µM (active)
EC50 [5]: > 120 µM (not active)
EC50 [6]: 11.1 µM (active)

O=C(N/N=C/c1ccc(Sc2nc3ccccc3s2)c([N+](=O)[O-])c1)c1ccccn1
AC50 (Cytochrome P450 3A4): 3.55 µM (inconclusive)
AC50 (Cytochrome P450 2C19): 7.08 µM (inconclusive)
AC50 (Cytochrome P450 2C9): 0.00562 µM (inconclusive)

O=C(O)/C=C\c1c2ccc(=O)c(O)c-2oc2c(O)c(O)ccc12
AC50 (Cytochrome P450 2C19): 3.16 µM (inconclusive)
AC50 (Cytochrome P450 2C9): 7.94 µM (inconclusive)

COc1cc(C2C(C#N)=C(N)N(c3ccc(F)cc3)C3=C2S(=O)(=O)CC3)ccc1O (stereo not drawn)
EC50 [1]: > 160 µM (inactive)
EC50 [2]: > 38 µM (not active)

CCN(Cc1ccccc1)C(c1cccs1)c1nnnn1C1CCCCC1 (stereo not drawn)
EC50 [7]: 3.97 µM (active)
EC50 [8]: 16.3 µM (active)
AC50 (INS1): 9.27 µM (active)

CCSc1c(C(=O)NC)ccc2c1C(=O)c1ccccc1C2=O
AC50 (Cytochrome P450 3A4): 12.6 µM (inconclusive)
AC50 (Cytochrome P450 2C19): 28.2 µM (inconclusive)
AC50 (Cytochrome P450 2C9): 10 µM (inconclusive)

CCOC(=O)C1(Cc2cccc(Cl)c2)CCCN(C(=O)c2ccc(COC)s2)C1 (stereo not drawn)
AC50 (INS1): > 260 µM (inactive)

COC(=O)CSC1=C(C#N)C(c2cccc(F)c2)CC(=O)N1 (stereo not drawn)
AC50 (Cytochrome P450 3A4): 39.8 µM (inconclusive)
AC50 (Cytochrome P450 2C9): 0.0282 µM (inconclusive)

CCCC[C@H]1C(=O)N(c2ccccc2)N(c2ccc(O)cc2)C1=O
AC50 (Cytochrome P450 1A2): 0.001 µM (inconclusive)
AC50 (Cytochrome P450 2C19): 15.8 µM (inconclusive)
AC50 (Cytochrome P450 2C9): 12.6 µM (inconclusive)

NS(=O)(=O)c1cc2c(cc1Cl)N=C(CSCc1ccccc1)NS2(=O)=O [BENZTHIAZIDE]
AC50 (Cytochrome P450 2C9): 3.98 µM (inconclusive)

O=NN(CCc1ccncc1)c1ccc(OCc2ccccc2)cc1
AC50 (INS1): 6.05 µM (active)

Cc1cccc(Cc2nnc(CCC(=O)N3CCCCC3c3nccs3)o2)c1 (stereo not drawn)
EC50 [1]: > 160 µM (inactive)
EC50 [2]: > 38 µM (not active)

O=C(O)CCc1ccc(-c2ccc(Cl)cc2)n1CCC(=O)O
AC50 (Cytochrome P450 2C9): 31.6 µM (inconclusive)

Cc1cc2[nH]c(=O)c(=O)[nH]c2cc1S(=O)(=O)N1CCN(c2ccccc2F)CC1
EC50 [1]: > 150 µM (inactive)
EC50 [2]: > 38 µM (not active)

O=C(CCCl)N(Cc1nc(O)c2ccccc2n1)Cc1cccs1
EC50 [1]: > 160 µM (inactive)
EC50 [2]: > 38 µM (not active)

CC(C(=O)c1c[nH]c2ccccc12)N1CCSCC1 (stereo not drawn)
AC50 (Cytochrome P450 2C9): 31.6 µM (inconclusive)

Cc1cccc(N(C)C(=S)Oc2ccc3ccccc3c2)c1 [TOLNAFTATE]
AC50 (Cytochrome P450 2C9): 1.26 µM (inconclusive)

COC(=O)C(CCSC)NC(=O)c1cccc([N+](=O)[O-])c1 (stereo not drawn)
AC50 (Cytochrome P450 2C9): 2 µM (inconclusive)

CC1(C)C2CC=C(/C=N/NC(=O)c3ccc(Cl)cc3)C1C2 (stereo not drawn)
EC50 (H4): > 120 µM (not active)
EC50 [5]: > 120 µM (not active)
EC50 [6]: 12.4 µM (active)

CN1CC2([N+](=O)[O-])CC=C(OCCO)C([N+](=O)[O-])(C1)C2 (stereo not drawn)
EC50 [1]: > 150 µM (inconclusive)
EC50 [2]: > 38 µM (not active)

Oc1nc(SCc2ccccc2F)nc2ccccc12
EC50 [1]: > 150 µM (inactive)
EC50 [2]: 1.26 µM (active)

Cc1nn(CC(=O)c2ccccc2Cl)c(C)c1[N+](=O)[O-]
EC50 (H4): 25.4 µM (active)
EC50 [5]: 38.2 µM (active)
EC50 [6]: 15.8 µM (active)
